Experimental data taken from patent US20030229451A1, “Methods and systems for analyzing complex biological systems” (priority 2001, published 2003).

Tests used:
[1] = system: Arabidopsis thaliana plants; test: SOA1 phenotypic analysis of herbicide-treated Arabidopsis (MIC, Tmic, leaf traits); assay type: in vivo; settings: for characteristic morphological symptoms: herbicide-treated Arabidopsis; for leafCurling Dev. / leafTwisting Dev. / leafWidth Dev. / matureLeafAnthocyanins Dev. / matureLeafChlorosis Dev. / matureLeafNecrosis Dev. / newLeafAnthocyanins Dev. / newLeafChlorosis Dev. / newLeafNecrosis Dev. / pointedLeaves Dev.: numeric value standardized to mock treated; for tMic Dev.: time to full range of symptoms at MIC, coded
Arabidopsis thaliana [2] = test: MOA1 biochemical (metabolite) profiling by LC-MS and GC-MS
Arabidopsis thaliana [3] = test: MOA1 gene expression profiling (22,000 gene array); settings: for Regulated Genes: Down / Regulated Genes: Up: 1 hr, p < 0.5; for No. of Lethal Genes Altered: genes essential for plant growth and development
[4] = system: N-starved Arabidopsis plants; settings: nitrate addition to N-starved plants; cited from earlier work

| Compound | characteristic morphological symptoms [1] | leafCurling Dev. [1] | leafTwisting Dev. [1] | leafWidth Dev. [1] | matureLeafAnthocyanins Dev. [1] | matureLeafChlorosis Dev. [1] | matureLeafNecrosis Dev. [1] | newLeafAnthocyanins Dev. [1] | newLeafChlorosis Dev. [1] | newLeafNecrosis Dev. [1] | pointedLeaves Dev. [1] | tMic Dev. [1] | Number of Metabolites Changed: (unknown #) (Arabidopsis thaliana [2]; 20 min, p < 0.05) | Number of Metabolites Changed: Total # (Arabidopsis thaliana [2]; 20 min, p < 0.05) | Number of Metabolites Changed: (unknown #) (Arabidopsis thaliana [2]; 20 min, p < 0.11) | Number of Metabolites Changed: Total # (Arabidopsis thaliana [2]; 20 min, p < 0.11) | Number of Metabolites Changed: (unknown #) (Arabidopsis thaliana [2]; 1 hr, p < 0.05) | Number of Metabolites Changed: Total # (Arabidopsis thaliana [2]; 1 hr, p < 0.05) | Number of Metabolites Changed: (unknown #) (Arabidopsis thaliana [2]; 1 hr, p < 0.11) | Number of Metabolites Changed: Total # (Arabidopsis thaliana [2]; 1 hr, p < 0.11) | also measured |
| --- | --- | --- | --- | --- | --- | --- | --- | --- | --- | --- | --- | --- | --- | --- | --- | --- | --- | --- | --- | --- | --- |
| CCNc1nc(Cl)nc(NC(C)C)n1 [Atrazine] | rapid and widespread leaf necrosis | 1 | 0 | −1 | 0 | 1 | 4 | 0 | 1 | 4 | 1 | 1 | 4 (4) | 4 (4) | 8 | 11 | 8 | 17 | 24 | 49 |  |
| CC(C)C1(C)N=C(c2ncccc2C(=O)O)NC1=O (stereo not shown) [Imazapyr] | anthocyanin accumulation in the older leaves accompanied by chlorosis of the newly emerging leaves | 0 | 0 | 0 | 2 | 0 | 0 | 0 | 2 | 0 | 0 | 2 | 2 | 5 | 3 | 9 | 6 | 8 | 10 | 14 |  |
| COC(=O)NS(=O)(=O)c1ccc(N)cc1 [Asulam] |  |  |  |  |  |  |  |  |  |  |  |  | 3 | 9 | 5 | 14 | 7 | 10 | 11 | 18 | Regulated Genes: Down (Arabidopsis thaliana [3]): 7; Regulated Genes: Up (Arabidopsis thaliana [3]): 80; No. of Lethal Genes Altered (Arabidopsis thaliana [3]): 5 |
| CC(C)N1C(=O)c2ccccc2NS1(=O)=O [Bentazon] | rapid and widespread leaf necrosis | 2 | 0 | −2 | 0 | 2 | 4 | 0 | 2 | 4 | 1 | 1 | 3 | 9 | 6 | 10 | 9 | 11 | 14 | 19 |  |
| O=[N+]([O-])O [Nitrate] |  |  |  |  |  |  |  |  |  |  |  |  |  |  |  |  |  |  |  |  | Nitrate Regulation of Glutamate synthetase [4]: ↑; Nitrate Regulation of Glutamine synthetase (2) [4]: ↑; Nitrate Regulation of MADs Box (2) [4]: ↓; Nitrate Regulation of MYB transcription factor [4]: ↑; Nitrate Regulation of Malate Dehydrogenase [4]: ↑; Nitrate Regulation of Nitrate transporter [4]: ↑; Nitrate Regulation of Phosphate transporter [4]: ↑; Nitrate Regulation of Transaldolase [4]: ↑; Nitrate Regulation of Transketolase [4]: ↑ |
| O=C(O)c1cc(Oc2ccc(C(F)(F)F)cc2Cl)ccc1[N+](=O)[O-] [Acifluorfen] | Necrotic leaf flecks | 1 | 0 | 0 | 0 | 0 | 1 | 0 | 0 | 3 | 0 | 1 | 11 | 17 | 20 | 32 | 13 | 19 | 22 | 31 |  |
| COc1nc(C)nc(NC(=O)NS(=O)(=O)c2ccccc2Cl)n1 [Chlorsulfuron] | anthocyanin accumulation in the older leaves accompanied by chlorosis of the newly emerging leaves | 1 | 1 | −1 | 3 | 2 | 0 | 0 | 2 | 0 | 0 | 2 | 4 | 9 | 6 | 15 | 3 | 5 | 13 | 23 | Regulated Genes: Down (Arabidopsis thaliana [3]): 109; Regulated Genes: Up (Arabidopsis thaliana [3]): 97; No. of Lethal Genes Altered (Arabidopsis thaliana [3]): 8 |
| O=C(O)c1ccccc1C(=O)Nc1cccc2ccccc12 [Naptalam] |  |  |  |  |  |  |  |  |  |  |  |  | 11 | 28 | 16 | 39 | 9 | 13 | 23 | 46 | Regulated Genes: Down (Arabidopsis thaliana [3]): 47; Regulated Genes: Up (Arabidopsis thaliana [3]): 50; No. of Lethal Genes Altered (Arabidopsis thaliana [3]): 3 |
| C[n+]1ccc(-c2cc[n+](C)cc2)cc1 [Paraquat] | rapid and widespread leaf necrosis | 2 | 0 | −1 | 0 | 1 | 4 | 0 | 1 | 4 | 1 | 2 | 5 | 9 | 9 | 14 | 15 | 22 | 31 | 50 |  |
